# Laboratory results from PMC10845205, “Discovery of novel antibacterial agent for the infected wound treatment: all-hydrocarbon stapling optimization of LL-37” (Theranostics, 2024).
# Positions of bridges follow the written chain, without caps; N, C: chain ends. Non-standard residues stand in square brackets, D forms with d. Residues, ends and D or L forms follow the SMILES beside them. S5 = C=CCCC[C@](C)(N)C(=O)O
# How the values were obtained:
# Serum stability assay = format: in vitro ADME, human; details: human serum, 2 mg/mL peptide in pH 7.4 PBS mixed with serum 1:4, 37 °C, up to 48 h, RP-HPLC UV 220 nm, 3 independent measurements
# From the text: Maintaining high stability and presenting high compatibility in the complex physiological environment are important criterions for the clinical translation of AMPs. […] The derivatives were mixed with human serum in pH 7.4 PBS, simulating the degradation process of peptides by proteases in vivo. The percentages of intact derivatives were monitored and determined with time according to the PR-HPLC. […]
# Serum stability of the linear and stapled peptides was examined by RP -HPLC as previously described. 2 mg/mL peptide solution was prepared in pH 7.4 PBS and incubated with human serum (Gemini, USA) to the final volume ratio of 1:4 at 37 °C.
# At various time intervals, 50 μL mixture was added to 50 μL ethanol to terminate the enzymatic hydrolysis. After centrifugation at 10,000 rpm for 10 minutes under 4 °C, […]
# the supernatant was collected and analyzed by RP-HPLC, with a UV detector monitored at 220 nm. Record the peak area of the intact peptide and calculate the percentage of remaining peptide based on the integrated area as, Peptide remaining (%) = peak area of remaining peptide/peak area of intact peptide×100%. […]
# NIH-3T3 cell = details: CCK-8, 24 h incubation, nonlinear regression, 3 independent measurements
# Method: For development of the stapled KR-12 derivatives to treat bacterial infections in vivo, their cytotoxicity was examined via the CCK-8 assay, which could provide a quantitative assessment of cell viability based on the dehydrogenase activity. The mouse embryonic fibroblast NIH-3T3 cell was selected and incubated with various concentrations of KR-12 and its stapled derivatives.
# Mouse embryonic fibroblast cells NIH-3T3 and mouse monocyte macrophage leukemia cells RAW264.7 were obtained from Shanghai Institute of Biochemistry and Cell Biology, Chinese Academy of Sciences. These two cells were maintained in DMEM and RPMI-1640, respectively. Both media were supplemented with 10% FBS and 1% 100 U/mL penicillin-streptomycin solution. Cells were maintained at 37 °C in a 5% CO2 and humidified incubator. Replace the culture medium every day until the cell grows to confluence. Cells were then treated with 0.25% trypsin–EDTA and split using fresh medium for either passage or analysis.
# CCK-8 cell counting kit was utilized to examine the cytotoxicity of the linear and stapled peptides. NIH-3T3 cell was planked at a density of 1.5×10^4 cell/well in a 96 - well plate and incubated it for 24 hours at 37 °C. Cells were then treated with different concentrations of peptides in fresh DMEM and incubated for 24 hours before the addition of 10 μL CCK -8 and incubation for a further 1 hour. Measure the absorbance at 450nm using a microplate reader (BioTek, USA) and calculate the percentage of cell viability as: cell viability (%) = (Abspeptide-Absblank)/(Abscontrol-Absblank)×100%, where Abscontrol is the absorbance of cells treated with PBS and Abs blank is the absorbance of the cell-free medium. The data was fitted using the nonlinear regression within
# K. pneumoniae = details: CLSI broth microdilution, MH-II broth, 24 h 37 °C, AlamarBlue; ATCC 13883; 3 independent measurements
# Method: (§1) According to the protocol of Clinical & Laboratory Standards Institute, the minimum inhibitory concentration (MIC) of the linear and stapled peptides against a panel of gram-positive and gram-negative bacteria was determined by the broth microdilution method. […]
# (§2) Bacterial strains and culture
# (§3) Bacterial type stains ATCC 25923 S. aureus, ATCC 12228 S. epidermidis, ATCC […]
# (§4) aeruginosa and ATCC 13883 K. pneumoniae were obtained from Shanghai Bioresource Collection Center. The bacterial culture medium was purchased from Oxoid and autoclaved according to the instructions from manufacturer. The isolated strains were cultured in Mueller Hinton II broth and continuously shaken at 140 rpm for 18 hours to the middle of the exponential growth phase at 37 °C with an OD value of 0.4-0.5.
# (§5) Bacterial suspensions with an OD value of 0.1, approximately […], were then diluted for further assays.
# (§6) The minimal inhibition concentration (MIC) of the linear and stapled peptides was determined using the microbroth dilution method from the Clinical and Laboratory Standards Institute (CLSI)[2, 3]. Bacterial suspensions of 10 6 CFU/mL were prepared in MH-II broth and peptide solutions at varying concentrations were prepared in phosphate buffer saline (PBS). Then 50 μL peptide solution and 50 μL bacterial suspension were mixed in a 96 -well plate. Plates were incubated for 24 hours at 37 °C.
# (§7) 10 μL AlamarBlue cell viability reagent (ThermoFisher Scientific, UK) was added to each well, then the plate was re -incubated for a further 2 hours at 37 °C. The MIC was recorded as the minimum concentration of peptides required to completely in hibit bacteria growth. For serum stability assessment, the peptide solutions were pre - incubated with 50% human serum for 4 h before the MIC determination. Experiments were performed in 3 independent measurements. […]
# A. baumannii = details: CLSI broth microdilution, MH-II broth, 24 h 37 °C, AlamarBlue; ATCC 19606; 3 independent measurements
# Method: as §1, §2, §3, §4, §5, §6, §7
# E. faecalis = details: CLSI broth microdilution, MH-II broth, 24 h 37 °C, AlamarBlue; ATCC 29212; 3 independent measurements
# Method: as §1, §2, §3, §4, §5, §6, §7
# S. aureus = details: CLSI broth microdilution, MH-II broth, 10^6 CFU/mL, 24 h 37 °C, AlamarBlue; ATCC 25923; 3 independent measurements
# Method: as §1, §2, §3, §4, §5, §6, §7
# E. coli = details: CLSI broth microdilution, MH-II broth, 24 h 37 °C, AlamarBlue; ATCC 25922; 3 independent measurements
# Method: as §1, §2, §3, §4, §5, §6, §7
# S. epidermidis = details: CLSI broth microdilution, MH-II broth, 24 h 37 °C, AlamarBlue; ATCC 12228; 3 independent measurements
# Method: as §1, §2, §3, §4, §5, §6, §7
# P. aeruginosa = details: CLSI broth microdilution, MH-II broth, 24 h 37 °C, AlamarBlue; ATCC 27853; 3 independent measurements
# Method: as §1, §2, §3, §4, §5, §6, §7
# [1] = Hydrophobicity by RP-HPLC retention time; format: physicochemical; details: chromatographic, reverse-phase C18 column, CH3CN/H2O containing 0.1%TFA from 10% to 90% over 20 min, UV 220 nm
# From the text: To uncover the structure-activity relationship of KR-12 and its stapled derivatives, their physicochemical properties in terms of hydrophobicity, net charge and α-helicity were investigated (Table 2).
structure (smiles),measurement,setting,value
"CC[C@H](C)[C@H](NC(=O)[C@H](CCCNC(=N)N)NC(=O)[C@H](CCCCN)NC(C)=O)C(=O)N[C@H](C(=O)N[C@@H](CCC(N)=O)C(=O)N[C@@H](CCCNC(=N)N)C(=O)N[C@H](C(=O)N[C@@]1(C)CCCC=CCCC[C@@](C)(C(N)=O)NC(=O)[C@H](CC(C)C)NC(=O)[C@H](Cc2ccccc2)NC(=O)[C@H](CC(=O)O)NC1=O)[C@@H](C)CC)C(C)C [KR-12 (K8, R12)] (Ac-KRIVQRI[S5]DFL[S5]-NH2; staple 8-12)",TD50 (time at which 50% of the peptide is degraded in the presence of serum),Serum stability assay,18.28 h
same,IC50 against NIH-3T3 cell,NIH-3T3 cell,52.8 µg/mL
same,MIC K. pneumoniae,K. pneumoniae,> 256 µg/mL
same,MIC A. baumannii,A. baumannii,16 µg/mL
same,MIC E. faecalis,E. faecalis,16 µg/mL
same,MIC S. aureus,S. aureus,16 µg/mL
same,MIC E. coli,E. coli,64 µg/mL
same,MIC S. epidermidis,S. epidermidis,16 µg/mL
same,MIC P. aeruginosa,P. aeruginosa,256 µg/mL
same,"TR (retention time, measure of hydrophobicity)",[1],18.2 min
